Assay results as given in US12233032B2, “Compositions for management of polycystic ovary syndrome” (Sami-Sabinsa Group Limited, priority 2021, dated 2025).
Marks after values point to notes of the source that are not given here.

How the values were obtained:
Format in all cases: in vivo
[1] = tested on: PCOS induced by letrozole in female Wistar rats; assay: Serum hormonal levels (17-β estradiol, progesterone, FSH, LH) in letrozole-induced PCOS; conditions: day 22 to day 36
Experimental: (§1) Animals and Experimental design: Animals were housed under standard air-conditioned laboratory conditions. The temperature was maintained at maximum: 24° C. and a minimum of 23° C. and Relative humidity at maximum: 63% and a minimum of 48% with 12 h light and 12 h dark cycle. The maximum and minimum temperature and relative humidity in the experimental room were recorded once daily. Female virgin Wistar rats (150-200 g) was checked daily for 4-day ovarian cycle using vaginal cytology. PCOS was induced by oral administration of aromatase inhibitor, letrozole (1 mg/kg) dissolved in 0.5% CMC (2 mg/kg) for 21 days. During the experiment, the estrous cycle was monitored by the analyses of relative proportion of leukocytes, epithelial and cornified cells in vaginal smears. Following letrozole administration, test samples were administered to animals from day 22 to day 36. After treatment protocol, animal from all groups (Table 1) were fasted overnight and anesthetized with diethylether/halothane. The blood was collected by retino-orbital puncture, then serum was separated by centrifugation followed by estimation of hormones and other biochemical parameters using commercially available ELISA kits. The serum hormone levels, body weight and ovary weigh of the animals were assessed to ascertain the effective dose.

[2] = tested on: PCOS induced by letrozole in female Wistar rats; assay: Body weight in letrozole-induced PCOS
Experimental: as §1

[3] = tested on: PCOS induced by letrozole in female Wistar rats; assay: Thyroid function analysis (serum T3, T4, TSH) in PCOS
Experimental: Animals and Experimental design: Animals were housed under standard air-conditioned laboratory conditions. The temperature was maintained at maximum: 24° C. and a minimum of 23° C. and Relative humidity at maximum: 63% and a minimum of 48% with 12 h light and 12 h dark cycle. The maximum and minimum temperature and relative humidity in the experimental room were recorded once daily. Female virgin Wistar rats (150-200 g) was checked daily for 4-day ovarian cycle using vaginal cytology. PCOS was induced by oral administration of aromatase inhibitor, letrozole (1 mg/kg) dissolved in 0.5% CMC (2 mg/kg) for 21 days. During the experiment, the estrous cycle was monitored by the analyses of relative proportion of leukocytes, epithelial and cornified cells in vaginal smears.
Following letrozole administration, test samples were administered to animals from day 22 to day 36. After treatment protocol, animal from all groups (Table 1) were fasted overnight and anesthetized with diethylether/halothane. The blood was collected by retino-orbital puncture, then serum was separated by centrifugation followed by estimation of hormones and other biochemical parameters using commercially available ELISA kits.
Based on the above results, the following groups were taken for further analysis BDMC 25 mg/kg p.o. • BDMC 50 mg/kg p.o. • AC3 100 mg/kg p.o. • AC3 200 mg/kg p.o.
The following molecular targets were assessed: • 1. Thyroid Function analysis • 2. Effect on androgen profile • 3. Effect on serum adiponectin levels • 4. Insulin resistance • 5. Effect on Serum Paraoxonase 1 Activity • 6. Effect of gut microbiota • 7. Oxidative stress and inflammatory markers Thyroid Function Analysis

[4] = tested on: PCOS induced by letrozole in female Wistar rats; assay: Ovarian weight in letrozole-induced PCOS; conditions: day 22 to day 36
Experimental: as §1

With `O=C(/C=C/c1ccc(O)cc1)CC(=O)/C=C/c1ccc(O)cc1` [BDMC, bisdemethoxycurcumin] the “Serum hormonal levels 17-β estradiol” value ([1]; 3.12 mg/kg) was 16.89 ± 3.01 pg/mL, the “Serum hormonal levels FSH” value ([1]; 3.12 mg/kg) was 10.54 ± 1.44 mIU/mL and the “Serum hormonal levels LH” value ([1]; 3.12 mg/kg) was 26.33 ± 3.02 mIU/mL. For the same molecule, the “Serum hormonal levels Progesterone” value ([1]; 3.12 mg/kg) was 18.67 ± 1.03 ng/mL, the “Serum hormonal levels 17-β estradiol” value ([1]; 6.25 mg/kg) was 18.22 ± 2.44 pg/mL and the “Serum hormonal levels FSH” value ([1]; 6.25 mg/kg) was 10.98 ± 1.52 mIU/mL. For the same molecule, the “Serum hormonal levels LH” value ([1]; 6.25 mg/kg) was 27.32 ± 2.30 mIU/mL, the “Serum hormonal levels Progesterone” value ([1]; 6.25 mg/kg) was 20.56 ± 1.09 ng/mL and the “Serum hormonal levels 17-β estradiol” value ([1]; 12.5 mg/kg) was 18.89 ± 1.65 pg/mL. For the same molecule, the “Serum hormonal levels FSH” value ([1]; 12.5 mg/kg) was 12.58 ± 1.08 mIU/mL, the “Serum hormonal levels LH” value ([1]; 12.5 mg/kg) was 24.36 ± 2.11 mIU/mL and the “Serum hormonal levels Progesterone” value ([1]; 12.5 mg/kg) was 23.50 ± 2.21 ng/mL. The “Serum hormonal levels 17-β estradiol” value ([1]; 25 mg/kg) was 22.50 ± 1.67 pg/mL, the “Serum hormonal levels FSH” value ([1]; 25 mg/kg) was 13.28 ± 1.34 mIU/mL and the “Serum hormonal levels LH” value ([1]; 25 mg/kg) was 21.54 ± 1.26 mIU/mL. For the same molecule, the “Serum hormonal levels Progesterone” value ([1]; 25 mg/kg) was 26.95 ± 1.53 ng/mL, the “Serum hormonal levels 17-β estradiol” value ([1]; 50 mg/kg) was 21.26 ± 2.32 pg/mL and the “Serum hormonal levels FSH” value ([1]; 50 mg/kg) was 13.07 ± 1.36 mIU/mL. For the same molecule, the “Serum hormonal levels LH” value ([1]; 50 mg/kg) was 22.78 ± 1.76 mIU/mL, the “Serum hormonal levels Progesterone” value ([1]; 50 mg/kg) was 26.28 ± 1.22 ng/mL and the Average body weight ([2]; 3.12 mg/kg from day 22, Day 28 (PCOS + Treatment)) was 202 ± 4.15 g. It also gave an Average body weight ([2]; 3.12 mg/kg from day 22, Day 36 (PCOS + Treatment)) of 200 ± 6.36 g, an Average body weight ([2]; 3.12 mg/kg group, Day 1 (PCOS induction, before treatment)) of 158 ± 6.16 g and an Average body weight ([2]; 3.12 mg/kg group, Day 7 (PCOS induction, before treatment)) of 175 ± 5.27 g. For the same molecule, the Average body weight ([2]; 3.12 mg/kg group, Day 14 (PCOS induction, before treatment)) was 194 ± 5.77 g, the Average body weight ([2]; 3.12 mg/kg group, Day 21 (PCOS induction, before treatment)) was 210 ± 7.58 g and the Average body weight ([2]; 6.25 mg/kg from day 22, Day 28 (PCOS + Treatment)) was 201 ± 6.88 g. It also gave an Average body weight ([2]; 6.25 mg/kg from day 22, Day 36 (PCOS + Treatment)) of 198 ± 6.45 g, an Average body weight ([2]; 6.25 mg/kg group, Day 1 (PCOS induction, before treatment)) of 157 ± 8.15 g and an Average body weight ([2]; 6.25 mg/kg group, Day 7 (PCOS induction, before treatment)) of 175.3 ± 4.5 g. It also gave an Average body weight ([2]; 6.25 mg/kg group, Day 14 (PCOS induction, before treatment)) of 195.5 ± 6.6 g, an Average body weight ([2]; 6.25 mg/kg group, Day 21 (PCOS induction, before treatment)) of 215 ± 5.78 g and an Average body weight ([2]; 12.5 mg/kg from day 22, Day 28 (PCOS + Treatment)) of 200 ± 6.57 g. The Average body weight ([2]; 12.5 mg/kg from day 22, Day 36 (PCOS + Treatment)) was 196 ± 5.26 g, the Average body weight ([2]; 12.5 mg/kg group, Day 1 (PCOS induction, before treatment)) was 158 ± 7.88 g and the Average body weight ([2]; 12.5 mg/kg group, Day 7 (PCOS induction, before treatment)) was 174 ± 2.83 g. The Average body weight ([2]; 12.5 mg/kg group, Day 14 (PCOS induction, before treatment)) was 202.5 ± 8.12^ g, the Average body weight ([2]; 12.5 mg/kg group, Day 21 (PCOS induction, before treatment)) was 212 ± 6.36 g and the Average body weight ([2]; 25 mg/kg from day 22, Day 28 (PCOS + Treatment)) was 201 ± 5.54 g. For the same molecule, the Average body weight ([2]; 25 mg/kg from day 22, Day 36 (PCOS + Treatment)) was 191 ± 5.84 g, the Average body weight ([2]; 25 mg/kg group, Day 1 (PCOS induction, before treatment)) was 157.5 ± 8.16^ g and the Average body weight ([2]; 25 mg/kg group, Day 7 (PCOS induction, before treatment)) was 172 ± 6.46 g. For the same molecule, the Average body weight ([2]; 25 mg/kg group, Day 14 (PCOS induction, before treatment)) was 190.5 ± 4.44^ g, the Average body weight ([2]; 25 mg/kg group, Day 21 (PCOS induction, before treatment)) was 210 ± 5.12 g and the Average body weight ([2]; 50 mg/kg from day 22, Day 28 (PCOS + Treatment)) was 199 ± 8.15 g. For the same molecule, the Average body weight ([2]; 50 mg/kg from day 22, Day 36 (PCOS + Treatment)) was 192 ± 6.36 g, the Average body weight ([2]; 50 mg/kg group, Day 1 (PCOS induction, before treatment)) was 157 ± 6.13 g and the Average body weight ([2]; 50 mg/kg group, Day 7 (PCOS induction, before treatment)) was 168 ± 5.47 g. For the same molecule, the Average body weight ([2]; 50 mg/kg group, Day 14 (PCOS induction, before treatment)) was 190 ± 10.42 g, the Average body weight ([2]; 50 mg/kg group, Day 21 (PCOS induction, before treatment)) was 211 ± 7.58 g and the “Serum hormonal levels T3” value ([3]; 25 mg/kg p.o.) was 3.3 ± 0.18 μIU/ml. The “Serum hormonal levels T4” value ([3]; 25 mg/kg p.o.) was 11.78 ± 0.39 μIU/ml, the “Serum hormonal levels TSH” value ([3]; 25 mg/kg p.o.) was 5.28** nmol/L and the “Serum hormonal levels T3” value ([3]; 50 mg/kg p.o.) was 3.05 ± 0.17 μIU/ml. The “Serum hormonal levels T4” value ([3]; 50 mg/kg p.o.) was 10.45 ± 0.27 μIU/ml, the “Serum hormonal levels TSH” value ([3]; 50 mg/kg p.o.) was 7.12** nmol/L and the Ovarian weight ([4]; 3.12 mg/kg) was 63.88 ± 2.19 mg. For the same molecule, the Ovarian weight ([4]; 6.25 mg/kg) was 59.64 ± 2.32 mg, the Ovarian weight ([4]; 12.5 mg/kg) was 54.36 ± 2.80 mg and the Ovarian weight ([4]; 25 mg/kg) was 47.88 ± 2.76 mg. It also gave an Ovarian weight ([4]; 50 mg/kg) of 48.54 ± 2.42 mg.
